We go through one compound from patent US5130327A, “Indole derivatives” (Consejo Superior de Investigaciones Cientificas, priority 1989, dated 1992).

Series [1] is described as follows: Potentiation of β-phenylethylamine. Format: in vivo. An excerpt: (§1) The action mechanism was studied in acute and chronic treatments on the interaction response with clonidine, salbutamol (Richard, J. Intern. J. Neuroscience, 9:17-19, 1979) and tetrabenazine (Pletscher, A.: An. N.Y. Aca. Sci. 80:1039-1045, 1959), and the response to the potentiation with L-dopa, L-tryptophan, tryptamine (Jalfre, M. et al., Arch. Int. Pharmacodyn, 159:194-221, 1982) and β-phenylethylamine (Ortmann, et al, Psychopharmacol. 84:22-27, 1984).

The test system of series [2] is α-adrenergic receptors. Briefly: Effects of chronic treatment on α2 receptors. It counts as in vivo. The settings on record: chronic administration in the rat. The protocol: (§2) Effects of chronic treatment on α2 -, β- and 5-HT2 receptors. The test compounds, at a dose of 10 mg/kg/day i.p., were administered for 21 days to Wistar male rats (250±2.4 g). After treatment the animals were killed, brains were dissected and cortices were scraped from the dorsal surface of the […]. ^3 H UK 14304, ^3 H Dihydroalprenalol and ^3 H Ketanserin were used as ligands in the binding studies.

Series [3] is described as follows: Secondary effects on the cardiovascular system. The settings on record: in vivo. The protocol: The secondary effects were studied mainly on the cardiovascular system, and the effects on the arterial pressure, heart rate and rhythm, P-R interval and isolated organ (rabbit aortic rings and isolated atria), were evaluated both after acute and chronic treatments. In the same way, the "cheese effect" was studied by means of the tyramine potentiation.

For series [4], the system named is rat cerebral MAO A and B. Nature of the series: MAO inhibitory activity at the biochemical level (reversibility and selectivity). An excerpt:
To determine MAO inhibitory activity at the biochemical level the following tests are used:
1. "In vitro inhibition" of rat cerebral MAO A and B giving I50 values for the two forms of the enzyme. Male Wistar rats (200 g) were used. Brains were obtained by decapitation and were homogenized. As substrates of the enzymes ^14 C-5-hydroxytryptamine oxalate 54 mCi/mmol and ^14 C-β-phenylethylamine were used. The residual enzymatic activities were referred to the activities in absence of MAO inhibitor (100%).
(§3) 2. "Ex vivo inhibition" of rat cerebral MAO A and B after single dosing.
This gives the degree of inhibition in vivo of both forms of the enzyme and variation of this inhibition with time after treatment with a single dose. The compounds were administered intraperitoneally to male Wistar rats (175 g.) at a dose of 5 mg/kg in 1 ml/kg (H2 O). Animals were sacrificed by decapitation 24 h. and 7 days after treatment and brains were removed and homogenized. Enzymatic activities determined in treated animals, were compared with the activities in control animals (100%).
3. "Ex vivo" inhibition of rat cerebral MAO A and B after repeated dosing.
Male Wistar rats (175 g) were used.
The compounds were administered once daily intraperitonally for 7 days at a dose of 0.5 and 1 mg/kg in 1 ml/kg […]. […]

Series [5] concerns brain, duodenum and liver MAO B. Nature of the series: In vivo inhibition of MAO B of different tissues after chronic treatment. Also noted: species or system rat. The protocol: 4. "In vivo" inhibition of MAO A and B of different tissues after chronic treatment.
In order to evaluate the effect of compounds in a chronic treatment, the inhibitory activity on brain, duodenum and liver MAO A and B has been studied "in vivo". Wistar male rats were treated at two dose levels, 0.1 and 0.25 mg/kg i.p. for 15 and 21 days. Control rats received similar amounts of saline solution.

The subject of series [6] is rat cerebral MAO A. Nature of the series: Ex vivo inhibition of rat cerebral MAO A after single dosing. Format: in vivo. The protocol: as §3
This gives the degree of inhibition in vivo of both forms of the enzyme and variation of this inhibition with time after treatment with a single dose. […] Animals were sacrificed by decapitation 24 h. and 7 days after treatment and brains were removed and homogenized. Enzymatic activities determined in treated animals, were compared with the activities in control animals (100%).

Series [7] addresses T1, Bovine Brain MAO B (Bos taurus, UniProt P56560).
T1 construct: in vitro activity of MAO from bovine brain mitochondria; from tissue; host or cells: bovine brain mitochondria
T1 sequence (P56560 1-520): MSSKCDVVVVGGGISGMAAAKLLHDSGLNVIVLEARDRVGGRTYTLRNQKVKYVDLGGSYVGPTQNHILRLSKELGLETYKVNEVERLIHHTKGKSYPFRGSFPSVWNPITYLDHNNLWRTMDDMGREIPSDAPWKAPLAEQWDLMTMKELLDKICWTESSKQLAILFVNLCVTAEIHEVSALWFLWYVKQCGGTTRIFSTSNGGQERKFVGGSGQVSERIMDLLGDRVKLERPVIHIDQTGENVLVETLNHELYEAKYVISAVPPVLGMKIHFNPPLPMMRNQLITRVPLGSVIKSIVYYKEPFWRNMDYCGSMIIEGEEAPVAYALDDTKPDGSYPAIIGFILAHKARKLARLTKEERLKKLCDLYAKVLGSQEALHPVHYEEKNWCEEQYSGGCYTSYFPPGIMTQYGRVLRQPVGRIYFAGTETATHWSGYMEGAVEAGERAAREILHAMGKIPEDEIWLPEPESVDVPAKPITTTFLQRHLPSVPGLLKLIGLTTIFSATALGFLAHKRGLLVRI
Nature of the series: In vitro inhibition of MAO from bovine brain mitochondria, tyramine as substrate (form B). The note with it: pI50 = -log [I50], molar; bovine brain mitochondria, tyramine as substrate. It counts as biochemical. An excerpt:
The following table illustrates the structure of particular compounds of the invention (1). It also gives specific pI50 values where pI50 =-log [I50 ] where [I50 ] is the molar concentration of test compound which inhibits 50% of the in vitro activity of MAO from bovine brain mitochondria using tyramine as substrate.

The subject of series [8] is 5-HT receptors. Nature of the series: Effects of chronic treatment on 5-HT2 receptors. The note with it: chronic administration in the rat. It counts as in vivo. Here is the method:
as §2

The nature of series [9]: Potentiation of L-tryptophan, L-dopa and tryptamine. The note with it: in vivo.
From the text: as §1

The structures appear in SMILES notation. pIC50: −log10 of the molar value.

A word on the ED50: it is the dose at which the effect has come halfway, by size or by number of responders. What is called pIC50 is the IC50 on a negative log10 scale, so that one unit is a factor of ten.

As for `C#CCN(C)Cc1cc2cc(OC)ccc2n1C` [(l), N-methyl-N-propargyl-2-(1-methyl-5-methoxy-indolyl)methylamine], the ED50 in series [1] amounted to 27 mg/kg. In addition, the “Modifications on α-adrenergic receptors” value in series [2] is reported as “not statistically significant”. Moreover, the Cardiovascular effects result in series [3] is “hypotensive and negative chronotrope”. In addition, in [4], the “Type of MAO inhibition (reversibility, selectivity)” value was “irreversible and selective inhibitor of MAO A”. Moreover, in series [5] (hepatic), the “Activity on hepatic MAO B” value is listed as “very low activity”. In addition, in series [5] (intestinal), the “Effect on intestinal MAO B” value is “without any effect”. Moreover, the “Persistence of MAO A inhibitory effect” value in [6] (dose increased (5 mg/kg)) was “observed even after 7 days”. In addition, the “Onset of MAO A inhibitory effect” value in series [6] (single dose (1 mg/kg)) is listed as “reached soon after the administration of a single dose”. For the same compound, the pIC50 in [7] was 6.05. The “Modifications on 5-HT receptors” value in series [8] is “not statistically significant”. The “Potentiation of effects of L-tryptophan, L-dopa and tryptamine” value in series [9] is “confirm the MAO inhibitory activity”.
